Literature values, collected in patent publication US7056734B1, “Differentiation of non-insulin producing cells into insulin producing cells by GLP-1 or exendin-4 and uses thereof” (The United States of America as represented by the …, priority 1998, dated 2006).

Tested on: AR42J cells
Details: Mashima et al., 1996; cited from earlier work

Substance: HGF: hepatocyte growth factor
- AR42J cells converted into insulin-producing / insulin positive cells: about 3%
